These results are taken from US7291337B2, “Peptide having an affinity for gp120” (Aspion Co., Ltd., priority 2000, dated 2007).

Assay [1] relates to serum of hepatitis C or B patients, laboratory strain and freshly isolated strain, virus lysate conjugated colloidal gold. The assay is described as follows: Specificity test with peptide conjugated latex beads against viruses (Table 17). Format: binding. The text has this:
The virus that was in use in this enforcement example was serum, laboratory strain and a freshly isolated strain that was gathered from patients of hepatitis C or B at final stage. Then, we used virus lysate that conjugated colloidal gold as previously.

A further assay addresses gp120 (Human immunodeficiency virus type 1 group M subtype B, UniProt P03375). The settings on record: peptide conjugated latex beads; for Agglutinin test, Colloidal gold conjugated gp120: protein contents 1 μg/ml; for Agglutinin test, gp120 protein: unlabelled gp120, contents 1 μg/ml.
Assay [2] has as its target HIV-1-gp120 (Immuno Diagnosis Co.), horseradish peroxidase labeled and enzyme unlabeled (HIV-1). Nature of the assay: Scatchard plot; HRP-labeled and unlabeled gp120 added to peptide carrier.
In assay [3] the test system is HTLV-IIIB (laboratory strain). The assay is described as follows: Investigation of neutralizing activity of HIV-1 (CPE in MT-4 cells), HTLV-IIIB. Format: cell-based. Conditions: content to inhibit infection (CPE), 6 days, NE = no effect. The source says:
(§1) Then, we used AZT as a positive control.

Assay [4] concerns KK-1 (freshly isolated HIV). The assay is described as follows: Investigation of neutralizing activity of HIV-1 (CPE in MT-4 cells), KK-1. Format: cell-based. The settings on record: content to inhibit infection (CPE), 6 days, NE = no effect.
Description: as §1

In assay [5] the target is HIV-1 kk-1 (virus; gp120 on it) (HIV-1 kk-1). The assay is described as follows: column absorption of KK-1 virus in human serum; p24 antigen ELISA.
Assay [6] shares this target. Nature of the assay: column absorption of KK-1 virus in human serum; p24 antigen ELISA of lysed bound virus (starting material 2,350).
Setting [7] is: Sample/Virus No. 1: HIV-1 IIIB, 1.0 × 10^5 TCID50.
The mark [8] stands for this setting: Sample/Virus No. 2: HIV-1 Lav 1, 1.0 × 10^5 TCID50.
Setting [9] is: Sample/Virus No. 3: HIV-1 kk-1, 1.0 × 10^4.5 TCID50.
Setting [10] is: Sample/Virus No. 4: HIV-2 Lav2, 1.0 × 10^6 TCID50.
Where [11] appears, read: Sample/Virus No. 5: Serum of HCV patients, titer indistinct.
Where [12] appears, read: Sample/Virus No. 6: Serum of HBV patients, titer indistinct.
Setting [13] is: Sample/Virus No. 7: Hepatitis B surface antigen(HbsAg), 1.6 × 10^5 units.
The mark [14] stands for this setting: Sample/Virus No. 8: Valaricella Zoster valirus, 9.5 × 10^5 units.
The mark [15] stands for this setting: Sample/Virus No. 9: Argubella Zoster valirus (VZV), 4.9 × 10^5 units.
[16] abbreviates: Sample/Virus No. 10: HTLV-1 virul lysate, 1.1 × 10^5 units.
Where [17] appears, read: Sample/Virus No. 11: human cytomegalovirus (HCMV), 5.5 × 10^5 units.
[18] abbreviates: Sample/Virus No. 12: Epstein-Barr virus(EB virus), 9.9 × 10^5 units.

Regarding Table 3 No. 6 (WWKAA), the Presence of agglutinin entry is recorded as “+” in assay [1] (setting [7]); “+” in assay [1] (setting [8]); “+” in assay [1] (setting [9]); “−” in assay [1] (setting [10]); “−” in assay [1] (setting [11]); “−” in assay [1] (setting [12]). In addition, the Presence of agglutinin result in assay [1] (setting [13]), in assay [1] (setting [14]), in assay [1] (setting [15]), in assay [1] (setting [16]), in assay [1] (setting [17]) and in assay [1] (setting [18]) was “−” throughout.
Consider Trp-Trp-Lys-Ala-Ala [No. 6 in Table 3], for which, on gp120, the “Agglutinin test, Colloidal gold conjugated gp120” value was “Presence” and the “Agglutinin test, gp120 protein” value was “Absence”.
Substance “No. 12 peptide of Table 3 (Tyr-Tyr-Lys-Ala-Ala) bound to Sephadex 4B” registered a Kd in assay [2] of 0.497 nM.
In the case of “Phe-Arg-Lys-Ala-Ala (FRKAA; printed: Phe-Arg-Lys-Ala-Ala) [No. 8 in Table 3]”, in assay [3], the “Anti-HIV neutralizing activity (μg/ml) HTLV-IIIB” value was 125 µg/mL. Further, the “Anti-HIV neutralizing activity (μg/ml) KK-1” value in assay [4] is 125 µg/mL.
As to Asp-Val-Lys-Ala-Gly [No. 1 in Table 1], on gp120, the “Agglutinin test, Colloidal gold conjugated gp120” value is reported as “Presence” and the “Agglutinin test, gp120 protein” value was “Absence”.
As to Table 1 No. 1 (DVKAG), the Presence of agglutinin entry in assay [1] (setting [7]) is given as “+”; in assay [1] (setting [8]), “+”; in assay [1] (setting [9]), “+”; in assay [1] (setting [10]), “−”; in assay [1] (setting [11]), “−”; in assay [1] (setting [12]), “−”. The Presence of agglutinin result in assay [1] (setting [13]), in assay [1] (setting [14]), in assay [1] (setting [15]), in assay [1] (setting [16]), in assay [1] (setting [17]) and in assay [1] (setting [18]) was “−” each time.
With “No. 12 peptide of Table 3 (Tyr-Tyr-Lys-Ala-Ala) bound to cellulose type carrier”, the percent of supplied virus absorbed in assay [5] is below 10%. The p24(S/CO), fraction of column absorption in assay [6] worked out at 205 S/CO.
In assay [2], “No. 1 peptide of Table 1 (Asp-Val-Lys-Ala-Gly) bound to Sephadex 6MB” yielded a Kd of 0.214 nM.
